# Reference: patent US11932641B1, “Pyrido[4′,3′:4,5]pyrrolo[3,2-b][1,7]naphthyridine compounds as CK2 inhibitors” (KING FAISAL UNIVERSITY, priority 2023, dated 2024)
# Legend:
# MCF7 (breast) = assay: In vitro cytotoxic activity (MTT) assay, MCF7; assay type: cell-based; conditions: Homo sapiens; MCF7 (breast) cells, 96 hours exposure; read-out: IC50, 50% inhibition of cell proliferation
# Protocol: (§1) Compounds 1-12 were screened for their in vitro cytotoxic activity utilizing a 3-(4,5-dimethyl-thiazol-2-yl)-2,5-diphenyltetrazolium bromide (MTT) assay against selected cancer human cell lines consisting of PC3 (prostate), HCT116 (colon), A375 (melanoma), H1299 (lung), MIAPaCa-2 (pancreas), HL60 (leukemia), MCF7 (breast), MDA-MB-231 (breast) (T. Mosmann, J. Immunol. Meth., 1983, 65, 55-63). The cells were cultured at 37° C. in RMPI1640 medium supplemented with 10% fetal bovine serum, 50 IU/mL penicillin, and 50 μg/mL streptomycin in a 5% CO2 incubator. All cells were sub-cultured 3 times/week by trypsinisation. Viable cells were seeded and allowed to adhere for 12 h before a test drug was added in 96-well plates at an initial density of 1.0×10^5 cells/mL. Tumour cell lines were separately exposed to various concentrations of the tested compounds followed by incubation at a temperature of 37° C. during 96 h inside a medium of fresh RMPI 1640. Cells were subsequently incubated at 37° C. using MTT at 0.5 mg/mL during 4 h. After removal of supernatant, formazan crystals were dissolved in isopropanol and the optical density was measured at 570 nm. CX-4945 was used as a positive control.
# A375 (melanoma) = assay: In vitro cytotoxic activity (MTT) assay, A375; assay type: cell-based; conditions: Homo sapiens, A-375; A375 (melanoma) cells, 96 hours exposure; read-out: IC50, 50% inhibition of cell proliferation
# Protocol: as §1
# PC3 (prostate) = assay: In vitro cytotoxic activity (MTT) assay, PC3; assay type: cell-based; conditions: Homo sapiens, Prostate cell; PC3 (prostate) cells, 96 hours exposure; read-out: IC50, 50% inhibition of cell proliferation
# Protocol: as §1
# MDA-MB-231 (breast) = assay: In vitro cytotoxic activity (MTT) assay, MDA-MB-231; assay type: cell-based; conditions: Homo sapiens; MDA-MB-231 (breast) cells, 96 hours exposure; read-out: IC50, 50% inhibition of cell proliferation
# Protocol: as §1
# [1] = biological target: T1, recombinant human CK2 (RRββ-holoenzyme) (Homo sapiens, UniProt P68400); assay: CK2 kinase assay (33P-ATP, filter plate); assay type: biochemical; conditions: final ATP 15 μM, 10 min at 30° C.; read-out: protein kinase CK2 IC50
# T1 construct: purchased Millipore
# T1 sequence (P68400 whole entry): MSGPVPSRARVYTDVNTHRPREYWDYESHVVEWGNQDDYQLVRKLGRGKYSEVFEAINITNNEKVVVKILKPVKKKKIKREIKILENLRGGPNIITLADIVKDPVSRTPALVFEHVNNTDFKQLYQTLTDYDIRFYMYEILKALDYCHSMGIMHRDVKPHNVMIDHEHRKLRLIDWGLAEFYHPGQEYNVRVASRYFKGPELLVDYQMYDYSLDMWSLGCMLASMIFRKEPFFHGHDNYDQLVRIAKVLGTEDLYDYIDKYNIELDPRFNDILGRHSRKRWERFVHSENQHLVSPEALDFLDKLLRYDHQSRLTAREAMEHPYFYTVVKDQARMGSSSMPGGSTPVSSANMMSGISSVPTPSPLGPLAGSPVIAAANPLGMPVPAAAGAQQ
# T1 sequence (P67870 whole entry partner): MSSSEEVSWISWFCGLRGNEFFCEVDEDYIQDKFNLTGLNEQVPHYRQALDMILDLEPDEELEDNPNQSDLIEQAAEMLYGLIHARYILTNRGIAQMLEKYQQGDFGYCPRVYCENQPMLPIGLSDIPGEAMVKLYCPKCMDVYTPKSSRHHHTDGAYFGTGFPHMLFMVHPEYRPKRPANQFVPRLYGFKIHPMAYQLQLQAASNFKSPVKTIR
# Protocol: CK2 Kinase Assay was conducted using the protocol as described in Pierre F. et al; J. Med Chem. 2011, 54, 635-654. The tested compounds in aqueous solution were added at a volume of 10 μL to a reaction mixture comprising 10 μL of assay dilution buffer (ADB; 20 mM MOPS, pH 7.2, 25 mM β-glycerol phosphate, 5 mM EGTA, 1 mM sodium orthovanadate, and 1 mM dithiothreitol), 10 μL of substrate peptide (RRRDDDSDDD, dissolved in ADB at a concentration of 1 mM), 10 μL of recombinant human CK2 (RRββ-holoenzyme, 25 ng dissolved in ADB; Millipore). Reactions were initiated by the addition of 10 μL of ATP solution (90% 75 mMMgCl2, 75 μM ATP (final ATP concentration: 15 μM) dissolved in ADB; 10% [γ-33P] ATP (stock 1 mCi/100 μL; 3000 Ci/mmol (Perkin-Elmer) and maintained for 10 min at 30° C. The reactions were quenched with 100 μL of 0.75% phosphoric acid and then transferred to and filtered through a phosphor cellulose filter plate (Millipore). After washing each well five times with 0.75% phosphoric acid, the plate was dried under vacuum for 5 min and, following the addition of 15 μL of scintillation fluid to each well, the residual radioactivity was measured using a Wallac […]. The IC50 values were derived from eight concentrations of test inhibitors.
# HCT116 (colon) = assay: In vitro cytotoxic activity (MTT) assay, HCT116; assay type: cell-based; conditions: Homo sapiens, HCT-116; HCT116 (colon) cells, 96 hours exposure; read-out: IC50, 50% inhibition of cell proliferation
# Protocol: as §1
# HL60 (leukemia) = assay: In vitro cytotoxic activity (MTT) assay, HL60; assay type: cell-based; conditions: Homo sapiens, HL-60; HL60 (leukemia) cells, 96 hours exposure; read-out: IC50, 50% inhibition of cell proliferation
# Protocol: as §1
# H1299 (lung) = assay: In vitro cytotoxic activity (MTT) assay, H1299; assay type: cell-based; conditions: Homo sapiens, NCI-H1299; H1299 (lung) cells, 96 hours exposure; read-out: IC50, 50% inhibition of cell proliferation
# Protocol: as §1
# MIAPaCa-2 (pancreas) = assay: In vitro cytotoxic activity (MTT) assay, MIAPaCa-2; assay type: cell-based; conditions: Homo sapiens, MIA PaCa-2; MIAPaCa-2 (pancreas) cells, 96 hours exposure; read-out: IC50, 50% inhibition of cell proliferation
# Protocol: as §1
smiles,measurement,setting,value
"Clc1ccc(Nc2c3ccncc3nc3c2[nH]c2cnccc23)cc1 [Compound 1, N-(4-chlorophenyl)-11H-pyrido[4′,3′:4,5]pyrrolo[3,2-b][1,7]naphthyridin-10-amine]",IC50,MCF7 (breast),8.5 µM
same,IC50,A375 (melanoma),3.4 µM
same,IC50,PC3 (prostate),1.3 µM
same,IC50,MDA-MB-231 (breast),5.2 µM
same,IC50,[1],0.005 µM
same,IC50,HCT116 (colon),1.5 µM
same,IC50,HL60 (leukemia),3.1 µM
same,IC50,H1299 (lung),2.4 µM
same,IC50,MIAPaCa-2 (pancreas),1.6 µM
